Patent publication US20190040025A1, “INDOLEAMINE 2,3-DIOXYGENASE INHIBITOR, PREPARATION METHOD THEREFOR, AND APPLICATION” (Jiangsu Hansoh Pharmaceutical Group Co., Ltd., priority 2016, published 2019)

What was measured:
[1] = tested on: mouse pancreatic cancer cell line PAN02; experiment: Anti-tumor effect in PAN02 tumor-bearing mouse model; type: in vivo, mouse (C57/BL6); conditions: PAN02 tumor-bearing mice, 50 mg/kg intragastric twice a day
Description: The invention used the PAN02 tumor-bearing mouse model to test the anti-tumor effect of the example compounds. The PAN02 tumor-bearing mouse model was the mouse pancreatic cancer cell line PAN02 purchased from Guangzhou Ginnio Biological Technology Co., Ltd., and the culture medium used was DMEM containing 10% fetal bovine serum. The mouse strain used for tumor-bearing was C57/BL6 purchased from Shanghai Slac Laboratory Animal Co., Ltd. At the time of implanting, the PAN02 cells in the logarithmic growth phase were collected, and mixed with the BDMatrigel matrix gel that reduced the growth factor to 50 million cells/ml. Each mouse was implanted subcutaneously with 100 μL of 5 million cells. When the tumor grew to about 100 cubic millimeters, animals were randomly divided into groups with 8 animals per group. Drug administration was started (D0).
Mode of administration: intragastrical administration, twice a day.
Formulation prescription: 3% two methyl acetamide and 20% hydroxypropyl-β-cyclodextrin. • Administration period and tumor measurement: The administration period was 13 days. The tumor volume was measured, the mice were weighed, and the data were recorded, 3 times a week. The calculation formula of tumor volume (V) is: V=½a×b2, where a and b represent length and width respectively. The calculation formula of T/C is: T/C (%)=100×ΔT/ΔC. Tumor inhibition rate (%)=1−T/C (%). • Experimental results: the anti-tumor effect of the compound of Example 15 in PAN02 tumor-bearing mouse model is shown in the following table.

[2] = target: T1, Human indoleamine 2,3-dioxygenase (IDO) (Homo sapiens, UniProt P14902); experiment: Enzymatic test for IDO activity inhibition; type: biochemical; conditions: 40 nM IDO enzyme, 0.2 mM L-tryptophan, 60 minutes at 30° C.
T1 construct: purchased BPS Bioscience Inc
T1 sequence (P14902 whole entry): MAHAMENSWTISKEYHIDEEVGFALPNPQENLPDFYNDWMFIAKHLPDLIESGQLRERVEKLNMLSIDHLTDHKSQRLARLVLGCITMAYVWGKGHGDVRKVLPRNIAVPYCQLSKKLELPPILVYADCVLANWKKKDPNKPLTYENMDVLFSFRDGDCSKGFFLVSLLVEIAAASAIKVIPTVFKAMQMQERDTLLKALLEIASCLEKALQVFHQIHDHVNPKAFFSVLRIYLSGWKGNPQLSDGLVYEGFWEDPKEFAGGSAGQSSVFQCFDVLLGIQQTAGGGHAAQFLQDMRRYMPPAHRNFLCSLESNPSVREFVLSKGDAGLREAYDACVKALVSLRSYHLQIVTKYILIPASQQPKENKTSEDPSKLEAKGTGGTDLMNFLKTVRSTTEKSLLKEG
Method: Human indoleamine 2,3-dioxygenase (IDO) was purchased from BPS Bioscience Inc. The enzymatic reaction of idoleamine 2,3-dioxygenase (IDO) was performed in a 96-well plate with a reaction volume of 20 μL. The reaction conditions were: 40 nM IDO enzyme, 0.2 mM L-tryptophan, 50 mM KPB (pH 6.5) buffer, 20 mM sodium L-L-ascorbate, 10 μM methylene blue, 0.2 mg/mL catalase, different concentrations of compounds containing <1% dimethyl sulfoxide. After reacting for 60 minutes at 30° C., 5 μL of 30% (w/v) trichloroacetic acid (in 50 mM KPB buffer) weres added to each well. The plate was incubated for 30 minutes at 50° C. to hydrolyze N-formyl-kynurenine to kynurenine. 25 μL of 2% (w/v) p-(dimethylamino)benzaldehyde (p-DMBA)/glacial acetic acid solution were added to each well. The absorbance at 490 nm was read on a BioTek Synergy H1 microplate reader […].
The stock solution of the test compound was prepared to 10 mM with dimethyl sulfoxide, diluted with dimethyl sulfoxide to the highest concentration of the test during the experiment, then diluted in 1:3 gradient, and generally diluted to 8 to 10 concentration points. Duplicate wells were set for each concentration point, and one reference compound was included in each experiment. The original data of the absorbance at 490 nm read on a microplate reader were analyzed. The inhibition of IDO enzyme activity was calculated at different concentrations of the test compound. The half-inhibitory concentration IC50 value of the compound was obtained by non-linear fitting analysis of inhibition percentage data by GraphPad Prism software.

SMILES: CS(=O)(CCNc1nonc1/C(=N/O)Nc1ccc(F)c(Br)c1)=NS(=O)(=O)C1CC1 (centres unmarked) [Example 15, (Z)—N-(3-bromo-4-fluorophenyl)-4-((2-(N-(cyclopropylsulfonyl)-S-methylsulfonimidoyl)ethyl)amino)-N′-hydroxy-1,2,5-oxadiazole-3-carboximidamide]
- Average tumor volume (mm^3 ± SEM) D0 ([1]; D0 (start of administration)): 105.0 ± 3.4 mm^3
- Average tumor volume (mm^3 ± SEM) D12 ([1]; D12): 163.3 ± 11.0 mm^3
- T/C (%) D12 ([1]; D12): 25.2%
- Tumor inhibition rate (%) D12 ([1]; D12, 50 mg/kg): 74.8%
- IC50 [2]: 27 nM
